Measurements: ChEMBL document CHEMBL5154675, “Design, Synthesis, and Biological Evaluation of 1-(Indolizin-3-yl)ethan-1-ones as CBP Bromodomain Inhibitors for the Treatment of Prostate Cancer” (J Med Chem, 2022)
≈ marks a conversion by molar mass, not a printed value. Calls of active or inactive are those of the source. No cut-off for these calls is given here.

Assays:
LNCaP C4-2B [1] = assay: Inhibition of colony formation in human LNCaP C4-2B cells at 1 to 4 uM incubated for 14 days by crystal violet staining based assay; format: functional, cell-based; details: dose 1-4 µM, time 14.0 day
[2] = Intrinsic clearance in rat liver microsomes at 1 uM incubated for 45 mins in presence of NADPH by LC-MS/MS analysis; format: ADME, Microsome; details: read-out: CLH
[3] = Half life in human liver microsomes at 1 uM incubated for 45 mins in presence of NADPH by LC-MS/MS analysis; format: ADME, Microsome
LNCaP = assay: Antiproliferative activity against human LNCaP cells assessed as cell growth inhibition by Celltiter-Glo assay; format: functional, cell-based
LNCaP C4-2B [4] = assay: Induction of apoptosis in human LNCaP C4-2B cells assessed as increase in apoptotic cells at 10 uM measured after 48 hrs by Annexin V-FITC and propidium iodide staining based flow cytometry (Rvb= 1%); format: functional
[5] = Cmax in Sprague-Dawley rat at 25 mg/kg, po measured up to 24 hrs; format: ADME, organism-based; parameters: dose 25 mg/kg, time < 24 hrs, route po; details: in vivo
CREB-binding protein [6] = target: T1, CREB-binding protein (Homo sapiens, UniProt Q92793); assay: Inhibition of His6-tagged human CBP bromodomain (1081 to 1197 residues) expressed in Escherichia coli BL21 (DE3) incubated for 30 mins by HTRF assay
T1 sequence (Q92793 whole entry, the tested form may be a part): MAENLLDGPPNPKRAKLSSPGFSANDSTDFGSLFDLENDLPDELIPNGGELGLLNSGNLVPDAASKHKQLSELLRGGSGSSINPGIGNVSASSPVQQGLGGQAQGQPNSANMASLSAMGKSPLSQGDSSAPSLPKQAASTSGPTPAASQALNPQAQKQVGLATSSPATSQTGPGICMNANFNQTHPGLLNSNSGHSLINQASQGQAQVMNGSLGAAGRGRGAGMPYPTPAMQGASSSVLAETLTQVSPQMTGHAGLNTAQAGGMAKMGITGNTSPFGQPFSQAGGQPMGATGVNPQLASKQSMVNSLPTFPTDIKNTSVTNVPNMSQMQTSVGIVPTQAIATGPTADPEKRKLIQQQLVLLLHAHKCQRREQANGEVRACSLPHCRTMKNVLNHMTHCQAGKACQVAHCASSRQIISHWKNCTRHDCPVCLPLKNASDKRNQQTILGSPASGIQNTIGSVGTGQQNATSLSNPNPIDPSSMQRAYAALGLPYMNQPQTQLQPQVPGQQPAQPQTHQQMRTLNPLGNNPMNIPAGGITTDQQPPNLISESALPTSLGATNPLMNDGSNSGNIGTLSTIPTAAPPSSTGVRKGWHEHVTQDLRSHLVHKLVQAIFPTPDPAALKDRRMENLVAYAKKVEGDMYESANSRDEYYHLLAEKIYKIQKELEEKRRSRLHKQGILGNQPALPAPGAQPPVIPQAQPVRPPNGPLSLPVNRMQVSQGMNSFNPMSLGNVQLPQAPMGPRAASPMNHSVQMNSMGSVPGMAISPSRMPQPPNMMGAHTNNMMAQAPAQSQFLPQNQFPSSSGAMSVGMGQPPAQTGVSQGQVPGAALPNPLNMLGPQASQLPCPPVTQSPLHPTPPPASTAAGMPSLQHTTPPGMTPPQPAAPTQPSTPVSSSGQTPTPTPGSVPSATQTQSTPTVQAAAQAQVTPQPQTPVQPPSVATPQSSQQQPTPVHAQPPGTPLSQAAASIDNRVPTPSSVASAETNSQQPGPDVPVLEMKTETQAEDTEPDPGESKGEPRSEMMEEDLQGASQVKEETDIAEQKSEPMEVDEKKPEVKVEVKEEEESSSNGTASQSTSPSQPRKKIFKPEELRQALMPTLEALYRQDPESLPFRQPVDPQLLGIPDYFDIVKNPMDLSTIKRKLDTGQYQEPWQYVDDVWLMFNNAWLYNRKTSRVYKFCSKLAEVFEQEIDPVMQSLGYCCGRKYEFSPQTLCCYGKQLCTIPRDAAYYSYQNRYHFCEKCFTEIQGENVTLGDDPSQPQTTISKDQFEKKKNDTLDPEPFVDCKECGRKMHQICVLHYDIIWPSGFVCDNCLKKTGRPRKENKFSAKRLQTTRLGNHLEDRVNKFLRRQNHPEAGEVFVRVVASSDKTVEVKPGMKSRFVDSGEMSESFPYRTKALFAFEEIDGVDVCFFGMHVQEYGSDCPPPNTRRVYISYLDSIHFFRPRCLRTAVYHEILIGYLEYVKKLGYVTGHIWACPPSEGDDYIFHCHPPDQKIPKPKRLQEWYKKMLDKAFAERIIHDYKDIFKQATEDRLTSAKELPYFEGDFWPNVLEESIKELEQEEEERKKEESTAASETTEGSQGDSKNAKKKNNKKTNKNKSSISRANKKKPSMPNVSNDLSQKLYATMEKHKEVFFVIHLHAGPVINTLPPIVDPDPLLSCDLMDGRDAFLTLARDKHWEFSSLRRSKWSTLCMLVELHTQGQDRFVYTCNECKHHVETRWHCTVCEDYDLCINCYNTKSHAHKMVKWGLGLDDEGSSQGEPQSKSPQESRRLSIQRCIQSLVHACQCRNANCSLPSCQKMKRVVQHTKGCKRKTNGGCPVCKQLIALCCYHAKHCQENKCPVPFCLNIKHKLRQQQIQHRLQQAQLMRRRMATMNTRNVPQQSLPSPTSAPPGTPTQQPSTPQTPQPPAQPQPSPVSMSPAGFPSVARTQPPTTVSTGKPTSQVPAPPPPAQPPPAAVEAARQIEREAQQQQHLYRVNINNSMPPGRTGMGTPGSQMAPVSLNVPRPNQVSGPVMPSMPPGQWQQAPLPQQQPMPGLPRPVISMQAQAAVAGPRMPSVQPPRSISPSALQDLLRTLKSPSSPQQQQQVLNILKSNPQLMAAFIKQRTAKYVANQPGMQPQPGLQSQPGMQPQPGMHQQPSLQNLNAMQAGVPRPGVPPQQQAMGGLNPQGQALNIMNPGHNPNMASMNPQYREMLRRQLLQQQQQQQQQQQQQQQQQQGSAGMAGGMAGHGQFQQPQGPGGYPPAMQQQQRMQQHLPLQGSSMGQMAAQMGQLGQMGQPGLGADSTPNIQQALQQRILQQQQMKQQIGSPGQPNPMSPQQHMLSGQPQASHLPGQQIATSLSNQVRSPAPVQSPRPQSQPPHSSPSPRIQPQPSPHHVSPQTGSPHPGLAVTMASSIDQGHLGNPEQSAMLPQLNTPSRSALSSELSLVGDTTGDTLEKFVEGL

[7] = target: Bromodomain-containing protein 4 (Homo sapiens, UniProt O60885); details: dose 200.0 µM, time 30.0 min
[8] = Clearance in Sprague-Dawley rat at 5 mg/kg, iv administered as single dose measured up to 24 hrs; format: ADME, organism-based; details: in vivo, iv, 5 mg/kg, 24 h
[9] = target: Bromodomain-containing protein 3 (Homo sapiens, UniProt Q15059); assay: Binding affinity to His6-tagged human BRD3 bromodomain-2 (306 to 416 residues) expressed in Escherichia coli BL21 (DE3) assessed as dissociation constant by ITC analysis
Chain of Bromodomain-containing protein 3 (Q15059 whole entry, the tested form may be a part): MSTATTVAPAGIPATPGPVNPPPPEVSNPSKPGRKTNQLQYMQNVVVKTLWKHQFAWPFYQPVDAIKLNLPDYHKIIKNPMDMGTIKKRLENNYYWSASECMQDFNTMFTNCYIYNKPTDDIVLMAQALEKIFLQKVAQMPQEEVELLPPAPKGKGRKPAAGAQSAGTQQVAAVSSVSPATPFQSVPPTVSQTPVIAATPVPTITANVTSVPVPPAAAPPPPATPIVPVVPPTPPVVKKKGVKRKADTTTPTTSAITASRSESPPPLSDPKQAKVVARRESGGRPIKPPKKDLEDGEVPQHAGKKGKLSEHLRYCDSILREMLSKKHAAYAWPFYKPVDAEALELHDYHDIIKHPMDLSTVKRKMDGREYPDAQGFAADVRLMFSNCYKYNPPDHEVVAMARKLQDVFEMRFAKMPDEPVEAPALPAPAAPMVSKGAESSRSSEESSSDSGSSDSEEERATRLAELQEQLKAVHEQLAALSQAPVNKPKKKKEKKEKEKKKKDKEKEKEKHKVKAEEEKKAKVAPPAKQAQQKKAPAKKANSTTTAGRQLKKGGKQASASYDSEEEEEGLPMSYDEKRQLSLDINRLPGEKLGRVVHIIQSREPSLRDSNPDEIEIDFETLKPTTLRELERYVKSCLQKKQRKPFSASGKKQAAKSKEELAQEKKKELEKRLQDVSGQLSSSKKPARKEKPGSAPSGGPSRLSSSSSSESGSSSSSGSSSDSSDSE

[10] = Apparent permeability across apical to basolateral side in human Caco-2 cells at 10 uM measured after 2 hrs by LC-MS/MS analysis; format: ADME, cell-based
CREB-binding protein [11] = target: T1, CREB-binding protein; assay: Binding affinity to His6-tagged human CBP bromodomain (1081 to 1197 residues) expressed in Escherichia coli BL21 (DE3) assessed as dissociation constant by ITC analysis
[12] = target: Histone acetyltransferase p300 (Homo sapiens) (UniProt Q09472); details: dose 200.0 µM, time 30.0 min
CWR22R [13] = assay: Suppression of Androgen receptor target-gene expression in human 22Rv1 cells at 5 uM incubated for 48 hrs by SYBR green dye-based qRT-PCR analysis; format: functional, cell-based
in vitro = details: rat, liver microsomes
Description: Hepatic extraction ratio in rat liver microsomes at 1 uM incubated for 45 mins in presence of NADPH by LC-MS/MS analysis

CWR22R [14] = assay: Suppression of c-Myc protein expression in human 22Rv1 cells at 5 uM incubated for 48 hrs by Western blot analysis; format: functional, cell-based
CWR22R [15] = assay: Suppression of Androgen receptor variants gene expression in human 22Rv1 cells incubated for 48 hrs by SYBR green dye-based qRT-PCR analysis; format: functional, cell-based; details: dose 0-20 µM, DDE = dose-dependent effect
[16] = Efflux ratio of apparent permeability across basolateral to apical side over apical to basolateral side in human Caco-2 cells at 10 uM measured after 2 hrs by LC-MS/MS analysis; format: ADME, cell-based
[17] = target: T2, Bromodomain-containing protein 2 (Homo sapiens, UniProt P25440); details: dose 200.0 µM, time 30.0 min
Target sequence in this assay (P25440 whole entry, looked up, the tested form may be a part): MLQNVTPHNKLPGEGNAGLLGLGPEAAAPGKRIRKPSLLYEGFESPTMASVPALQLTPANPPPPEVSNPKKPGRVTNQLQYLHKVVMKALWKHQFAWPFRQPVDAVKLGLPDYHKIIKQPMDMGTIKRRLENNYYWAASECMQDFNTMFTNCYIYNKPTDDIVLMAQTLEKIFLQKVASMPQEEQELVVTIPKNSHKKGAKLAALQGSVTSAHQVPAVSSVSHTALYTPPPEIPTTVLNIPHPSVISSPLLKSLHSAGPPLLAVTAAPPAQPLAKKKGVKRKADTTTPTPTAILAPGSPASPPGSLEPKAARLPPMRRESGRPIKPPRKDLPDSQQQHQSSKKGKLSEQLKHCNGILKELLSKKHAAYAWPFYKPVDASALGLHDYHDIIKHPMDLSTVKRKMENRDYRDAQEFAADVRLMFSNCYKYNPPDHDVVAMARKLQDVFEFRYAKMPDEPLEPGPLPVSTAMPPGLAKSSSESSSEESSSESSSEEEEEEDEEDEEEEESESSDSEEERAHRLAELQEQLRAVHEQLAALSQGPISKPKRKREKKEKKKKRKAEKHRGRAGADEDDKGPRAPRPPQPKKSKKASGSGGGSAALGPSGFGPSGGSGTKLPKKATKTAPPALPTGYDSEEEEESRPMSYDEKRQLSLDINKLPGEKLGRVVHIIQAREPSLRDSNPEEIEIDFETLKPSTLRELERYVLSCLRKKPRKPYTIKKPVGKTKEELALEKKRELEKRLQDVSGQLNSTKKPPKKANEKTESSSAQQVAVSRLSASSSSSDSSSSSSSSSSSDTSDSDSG

[18] = target: Bromodomain adjacent to zinc finger domain protein 2B (Homo sapiens) (UniProt Q9UIF8); details: dose 200.0 µM, time 30.0 min
LNCaP C4-2B [19] = assay: Suppression of Androgen receptor target-gene expression in human LNCaP C4-2B cells at 5 uM incubated for 48 hrs by SYBR green dye-based qRT-PCR analysis; format: functional, cell-based
[20] = Apparent permeability across basolateral to apical side in human Caco-2 cells at 10 uM measured after 2 hrs by LC-MS/MS analysis; format: ADME, cell-based
CWR22R [21] = assay: Suppression of PSA gene expression in human 22Rv1 cells incubated for 48 hrs by dual luciferase reporter assay; format: functional, cell-based; details: dose 0-20 µM, DDE = dose-dependent effect
CWR22R [22] = assay: Antitumor activity against human 22Rv1 cells xenografted in NOD SCID mouse assessed as tumor growth inhibition at 40 mg/kg, po administered 5 times per week via oral gavage for 14 days and measured every other day relative to control; format: functional; details: 22Rv1, 336 h, time 14 day, read-out: TGI
[23] = AUC (0 to infinity) in Sprague-Dawley rat at 25 mg/kg, po measured up to 24 hrs; format: ADME, organism-based; parameters: time < 24 hrs, dose 25 mg/kg, route po; details: in vivo
[24] = Hepatic extraction ratio in human liver microsomes at 1 uM incubated for 45 mins in presence of NADPH by LC-MS/MS analysis; format: ADME, Microsome; details: read-out: ERH
[25] = AUC (0 to infinity) in Sprague-Dawley rat at 5 mg/kg, iv administered as single dose measured up to 24 hrs; format: ADME, organism-based; parameters: time < 24 hrs, dose 5 mg/kg, route iv; details: in vivo, 24 h
[26] = Metabolic stability in rat liver microsomes assessed as parent compound remaining at 1 uM incubated for 45 mins in presence of NADPH by LC-MS/MS analysis; format: ADME, Microsome; details: read-out: Stability
[27] = Intrinsic clearance in human liver microsomes at 1 uM incubated for 45 mins in presence of NADPH by LC-MS/MS analysis; format: ADME, Microsome; details: read-out: CLH
[28] = target: T2, Bromodomain-containing protein 2; assay: Binding affinity to His6-tagged human BRD2 bromodomain-1 (77 to 194 residues) expressed in Escherichia coli BL21 (DE3) assessed as dissociation constant by ITC analysis
LNCaP C4-2B [29] = assay: Induction of apoptosis in human LNCaP C4-2B cells assessed as increase in apoptotic cells at 20 uM measured after 48 hrs by Annexin V-FITC and propidium iodide staining based flow cytometry (Rvb= 1%); format: functional
[30] = Aqueous solubility of compound in PBS buffer at pH 7.2 measured after 24 hrs by HPLC analysis; format: physicochemical
CWR22R [31] = assay: Suppression of full length Androgen receptor gene expression in human 22Rv1 cells incubated for 48 hrs by SYBR green dye-based qRT-PCR analysis; format: functional, cell-based; details: dose 0-20 µM, DDE = dose-dependent effect
CWR22R [32] = assay: Antimigratory activity against human 22Rv1 cells assessed as reduction in cell migration at 5 uM incubated for 48 hrs by bright-field microscopy based wound healing assay relative to control; format: functional; parameters: scale not given: the % may be the effect or the level left
LNCaP C4-2B [33] = assay: Suppression of PSA gene expression in human LNCaP C4-2B cells transfected with renilla luciferase incubated for 24 hrs by dual luciferase reporter assay; format: functional, cell-based; details: dose 0.4-10 µM, DDE = dose-dependent effect
[34] = target: Histone acetyltransferase KAT2B (Homo sapiens) (UniProt Q92831); details: dose 200.0 µM, time 30.0 min
Chain of Histone acetyltransferase KAT2B (Homo sapiens) (Q92831 whole entry, looked up): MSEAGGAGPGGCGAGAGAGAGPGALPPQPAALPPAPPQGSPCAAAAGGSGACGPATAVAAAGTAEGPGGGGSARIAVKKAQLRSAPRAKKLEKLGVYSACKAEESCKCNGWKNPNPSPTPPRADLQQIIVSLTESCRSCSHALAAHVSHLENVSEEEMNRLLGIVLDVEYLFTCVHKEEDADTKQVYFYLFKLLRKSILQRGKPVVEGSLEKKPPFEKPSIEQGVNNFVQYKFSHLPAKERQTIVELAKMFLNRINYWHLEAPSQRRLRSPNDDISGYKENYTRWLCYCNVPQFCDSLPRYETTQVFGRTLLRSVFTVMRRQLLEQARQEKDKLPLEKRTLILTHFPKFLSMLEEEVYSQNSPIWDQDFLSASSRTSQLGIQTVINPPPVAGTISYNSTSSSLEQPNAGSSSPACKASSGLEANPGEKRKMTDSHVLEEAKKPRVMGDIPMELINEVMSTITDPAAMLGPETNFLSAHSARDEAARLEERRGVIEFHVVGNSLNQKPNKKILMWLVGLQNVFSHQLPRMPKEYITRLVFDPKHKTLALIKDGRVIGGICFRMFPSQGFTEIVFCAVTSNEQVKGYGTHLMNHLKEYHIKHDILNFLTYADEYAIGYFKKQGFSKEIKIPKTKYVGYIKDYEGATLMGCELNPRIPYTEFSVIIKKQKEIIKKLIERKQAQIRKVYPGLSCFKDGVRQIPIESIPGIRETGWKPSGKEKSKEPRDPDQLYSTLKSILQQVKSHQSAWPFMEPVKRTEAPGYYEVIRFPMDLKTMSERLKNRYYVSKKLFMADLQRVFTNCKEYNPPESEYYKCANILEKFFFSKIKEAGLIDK

[35] = Apparent permeability across basolateral to apical side in human Caco-2 cells assessed as drug recovery at 10 uM measured after 2 hrs by LC-MS/MS analysis; format: ADME, cell-based; details: read-out: Drug recovery
[36] = target: SWI/SNF-related matrix-associated actin-dependent regulator of chromatin subfamily A member 2 (Homo sapiens) (UniProt P51531); details: dose 200.0 µM, time 30.0 min

COc1ccn2c(C(C)=O)cc(C(=O)Nc3cc(C(C)O)cc(-c4cnn(C5CC5)c4)c3F)c2c1 (stereo not drawn)
inhibition (LNCaP C4-2B [1]): Active | CLint scaled at 1 µM [2]: 54.1 mL/min/kg | half-life at 1 µM [3]: 21.3 min | IC50 (LNCaP): 590 nM | Activity (LNCaP C4-2B [4]): 10.39% | Cmax [5]: 1570 ng/mL | IC50 (CREB-binding protein [6]): 4.21 nM | ΔTm [7]: -1.5 °C | CL [8]: 2.33 mL/min/kg | Kd [9]: 1500 nM | Papp A→B at 2 h, 10 µM [10]: 6.68 ×10⁻⁶ cm/s | Kd (CREB-binding protein [11]): 58 nM | ΔTm [12]: 12 °C | Activity (CWR22R [13]): Active | hepatic extraction ratio at 0.75 h, 1 µM (in vitro): 0.495 | Activity (CWR22R [14]): Active | Activity (CWR22R [15]): Dde | efflux ratio at 2 h, 10 µM [16]: 1.77 | ΔTm [17]: 1 °C | ΔTm [18]: 0 °C | Activity (LNCaP C4-2B [19]): Active | Papp B→A at 2 h, 10 µM [20]: 11.8 ×10⁻⁶ cm/s | Activity (CWR22R [21]): Dde | inhibition in vivo at 40 mg/kg (CWR22R [22]): 78% | AUC(0-inf) [23]: 4820 ng·h/mL | hepatic extraction ratio at 0.75 h, 1 µM [24]: 0.798 | AUC [25]: 3715.71 ng·h/mL | remaining at 0.75 h, 1 µM [26]: 50.7% | CLint scaled at 1 µM [27]: 81.9 mL/min/kg | Kd [28]: 840 nM | Activity (LNCaP C4-2B [29]): 13.08% | solubility at 24 h [30]: 20 µg/mL (≈ 42 µM) | Activity (CWR22R [31]): Dde | Activity (CWR22R [32]): 60% | Activity (LNCaP C4-2B [33]): Dde | ΔTm [34]: -0.6 °C | recovery at 2 h, 10 µM [35]: 37.3% | ΔTm [36]: -0.5 °C
